This note sets out measurements from patent publication US11691974B2, “3,9-diazaspiro[5,5]undecane compound as FLT3 and AXL inhibitors” (MEDSHINE DISCOVERY INC., priority 2018, dated 2023).

Molecules are shown by their SMILES.

One series addresses T1, FLT3(K663Q) (Homo sapiens, UniProt P36888, K663Q).
T1 sequence (P36888 27-993 K663Q): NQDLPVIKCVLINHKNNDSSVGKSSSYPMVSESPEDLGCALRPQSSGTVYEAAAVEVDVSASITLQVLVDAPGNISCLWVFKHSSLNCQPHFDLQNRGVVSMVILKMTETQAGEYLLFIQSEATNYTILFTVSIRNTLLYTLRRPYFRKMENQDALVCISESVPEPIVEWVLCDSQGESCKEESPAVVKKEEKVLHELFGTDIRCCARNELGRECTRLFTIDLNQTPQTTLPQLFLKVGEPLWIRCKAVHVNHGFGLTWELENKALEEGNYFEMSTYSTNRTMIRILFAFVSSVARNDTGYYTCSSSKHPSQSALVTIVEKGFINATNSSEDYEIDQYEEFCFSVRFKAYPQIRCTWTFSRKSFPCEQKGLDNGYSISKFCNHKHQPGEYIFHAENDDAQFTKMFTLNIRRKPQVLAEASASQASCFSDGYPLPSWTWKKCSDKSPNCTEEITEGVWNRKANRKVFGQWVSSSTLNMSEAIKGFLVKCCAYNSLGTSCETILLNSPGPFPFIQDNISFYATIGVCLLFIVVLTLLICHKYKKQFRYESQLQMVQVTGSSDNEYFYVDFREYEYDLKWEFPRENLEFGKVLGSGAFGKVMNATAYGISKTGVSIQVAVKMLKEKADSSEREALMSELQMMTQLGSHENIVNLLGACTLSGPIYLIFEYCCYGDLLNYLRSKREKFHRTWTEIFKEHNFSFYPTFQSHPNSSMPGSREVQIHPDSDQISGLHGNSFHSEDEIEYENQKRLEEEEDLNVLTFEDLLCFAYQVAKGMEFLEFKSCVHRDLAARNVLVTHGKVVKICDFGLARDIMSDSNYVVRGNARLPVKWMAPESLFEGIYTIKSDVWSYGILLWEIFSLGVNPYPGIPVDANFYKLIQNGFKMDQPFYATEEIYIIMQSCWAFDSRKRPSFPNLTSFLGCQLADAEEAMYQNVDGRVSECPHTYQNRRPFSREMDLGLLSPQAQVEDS
The series is described as follows: KINOMEscan Kd determination, FLT3 mutant. The series is classed as binding. The conditions noted are these: ratio of Kd versus compound B. As for the experimental part: The assay was carried out using KINOMEscan™ technology. The assay compounds were stored in 100% DMSO. The assay was carried out by means of 3-fold dilution and 11-point fitting. All compounds used for Kd determination were dispersed by ultrasound, then directly diluted and tested. All reactions were carried out in a 384-well polypropylene plate. Each portion has a final volume of 0.02 ml. The plate was incubated with shaking at room temperature for 1 hour, and then processed. The kinase concentration in the eluent was finally determined by qPCR method. Kd was obtained by fitting.

Series [1] can be described thus: In vivo pharmacokinetic study in mice. Details: species or system CD-1 male mice. The note with it: male, CD-1, mouse, plasma. How it is done:
CD-1 male mice aged 7 to 10 weeks were selected. The doses for intravenous and oral administration were 1 mg/kg and 2.5 mg/kg, respectively. The mice were fasted for at least 12 hours before the administration, and resumed feeding 4 hours after the administration. The mice had free access to water throughout the assay period.
On the day of the assay, the animals in the intravenous group were administrated the corresponding compound through a single injection in the tail vein at an administration volume of 5 mL/kg; the oral group were administrated the corresponding compound through a single intragastric gavage at an administration volume of 10 mL/kg. The animals were weighed before administration, and the administration volume was calculated based on the body weight. The time for collecting samples was: 0.083 (the injection group), 0.25, 0.5, 1, 2, 4, 8, 24 h. About 30 μL of whole blood was collected from the saphenous vein at each time point to prepare plasma for concentration determination by high-performance liquid chromatography-tandem mass spectrometry (LC-MS/MS). All animals were euthanized by CO2 anesthesia after collecting the PK samples at the last time point. The plasma concentrations were processed by non-compartmental model of WinNonlin™ Version 6.3 (Pharsight, Mountain View, Calif.) pharmacokinetic software, and the pharmacokinetic parameters were calculated by the linear logarithm trapezoidal method.

For orientation: AUC(0-t) means exposure summed from dosing to a finite time, without extrapolation to infinity. The clearance is the volume of plasma or blood freed of the substance per unit of time. Low values mean inefficient removal, high ones efficient removal. The term half-life denotes how long it takes for the measured level to halve. Low readings indicate fast loss, high ones slow loss. In general, bioavailability refers to the share of a dose that reaches the circulation, judged against a reference dose that is usually intravenous. Read a low bioavailability as little systemic uptake.

As to `CCc1nc(C(N)=O)c(Nc2ccc(N3CCC4(CCN(C)CC4)CC3)c(C)c2)nc1NC1CCOCC1`, on FLT3(K663Q), the “activity for FLT3 (K663Q) higher than that of compound B” value came out at 5.9 times. For the same molecule, in series [1] (iv, injection 1 mg/kg), the AUC(0-t) was found to be 0.604 µM·h, the clearance was found to be 48.5 mL/min/kg and the half-life was 2.4 h. For the same molecule, the Vd in series [1] (iv, injection 1 mg/kg, read-out: Vdss) turned out to be 8.63 L/kg. In series [1] (oral administration 2.5 mg/kg), this molecule showed an AUC(0-t) of 0.598 µM·h, a bioavailability of 37.3% and a half-life of 4.41 h.
